Assay results reported in the supplement of paper PMC13207355.

What was measured:
Conditions in all cases: exposure time: 72 h
E13 [1] = patient-derived glioblastoma stem cells of classical subtype; experiment: surviving fraction (nuclei count normalised to DMSO); higher = more cells surviving (less toxic)
E21 [2] = patient-derived glioblastoma stem cells of mesenchymal subtype; experiment: as above
E28 [3] = patient-derived glioblastoma stem cells of classical subtype; experiment: as above
E31 [4] = patient-derived glioblastoma stem cells of proneural subtype; experiment: as above
E34 [5] = patient-derived glioblastoma stem cells of proneural subtype; experiment: as above
E57 [6] = patient-derived glioblastoma stem cells of mesenchymal subtype; experiment: as above
FT3469 [7] = normal neural stem cell line; experiment: as above
E13 [8] = experiment: phenotypic distance (Euclidean, principal components) from DMSO controls (arbitrary units); higher = stronger morphological change
E21 [9] = experiment: as above
E28 [10] = experiment: as above
E31 [11] = experiment: as above
E34 [12] = experiment: as above
E57 [13] = experiment: as above
FT3469 [14] = experiment: as above
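For phenotypic distance (Euclidean, principal components) from DMSO controls in this document: cell Painting imaging in 384-well plates, CellProfiler features reduced to at least 20 principal components, Euclidean distance versus same-plate DMSO vehicle wells (0.1% v/v), median over six images per well.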
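For surviving fraction (nuclei count normalised to DMSO) in this document: nuclei counted by high-content imaging of Hoechst-stained cells in laminin-coated 384-well plates, relative to 0.1% DMSO vehicle wells, with staurosporine as cell-death control.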

CCc1c2c(nc3ccc(OC(=O)N4CCC(N5CCCCC5)CC4)cc13)-c1cc3c(c(=O)n1C2)COC(=O)[C@]3(O)CC [Irinotecan]
Conditions | phenotypic distance | surviving fraction
E13 [1], 4.1 nM | – | 0.966
E13 [1], 12.3 nM | – | 1.03
E13 [1], 37 nM | – | 1
E13 [1], 111.1 nM | – | 0.975
E13 [1], 333.3 nM | – | 0.974
E13 [1], 1000 nM | – | 0.784
E13 [1], 3000 nM | – | 0.418
E13 [8], 4.1 nM | 0.394 | –
E13 [8], 12.3 nM | 1.01 | –
E13 [8], 37 nM | 0.761 | –
E13 [8], 111.1 nM | 0.76 | –
E13 [8], 333.3 nM | 1.35 | –
E13 [8], 1000 nM | 2.55 | –
E13 [8], 3000 nM | 5.65 | –
E21 [2], 4.1 nM | – | 1.03
E21 [2], 12.3 nM | – | 1.08
E21 [2], 37 nM | – | 0.918
E21 [2], 111.1 nM | – | 1.03
E21 [2], 333.3 nM | – | 0.883
E21 [2], 1000 nM | – | 0.589
E21 [2], 3000 nM | – | 0.124
E21 [9], 4.1 nM | 0.618 | –
E21 [9], 12.3 nM | 1.21 | –
E21 [9], 37 nM | 0.691 | –
E21 [9], 111.1 nM | 1.31 | –
E21 [9], 333.3 nM | 1.88 | –
E21 [9], 1000 nM | 3.97 | –
E21 [9], 3000 nM | 5.51 | –
E28 [3], 4.1 nM | – | 1.21
E28 [3], 12.3 nM | – | 1.07
E28 [3], 37 nM | – | 1.07
E28 [3], 111.1 nM | – | 0.969
E28 [3], 333.3 nM | – | 0.765
E28 [3], 1000 nM | – | 0.541
E28 [3], 3000 nM | – | 0.302
E28 [10], 4.1 nM | 0.5 | –
E28 [10], 12.3 nM | 0.951 | –
E28 [10], 37 nM | 0.608 | –
E28 [10], 111.1 nM | 0.966 | –
E28 [10], 333.3 nM | 1.51 | –
E28 [10], 1000 nM | 3.61 | –
E28 [10], 3000 nM | 4.49 | –
E31 [4], 4.1 nM | – | 0.946
E31 [4], 12.3 nM | – | 1.1
E31 [4], 37 nM | – | 0.899
E31 [4], 111.1 nM | – | 0.922
E31 [4], 333.3 nM | – | 0.946
E31 [4], 1000 nM | – | 0.579
E31 [4], 3000 nM | – | 0.144
E31 [11], 4.1 nM | 0.6 | –
E31 [11], 12.3 nM | 0.75 | –
E31 [11], 37 nM | 0.721 | –
E31 [11], 111.1 nM | 0.569 | –
E31 [11], 333.3 nM | 1.07 | –
E31 [11], 1000 nM | 1.39 | –
E31 [11], 3000 nM | 3.35 | –
E34 [5], 4.1 nM | – | 1.01
E34 [5], 12.3 nM | – | 0.922
E34 [5], 37 nM | – | 0.796
E34 [5], 111.1 nM | – | 0.981
E34 [5], 333.3 nM | – | 0.942
E34 [5], 1000 nM | – | 0.675
E34 [5], 3000 nM | – | 0.542
E34 [12], 4.1 nM | 0.814 | –
E34 [12], 12.3 nM | 0.597 | –
E34 [12], 37 nM | 0.83 | –
E34 [12], 111.1 nM | 0.866 | –
E34 [12], 333.3 nM | 2.22 | –
E34 [12], 1000 nM | 4.25 | –
E34 [12], 3000 nM | 3.72 | –
E57 [6], 4.1 nM | – | 1.08
E57 [6], 12.3 nM | – | 1.02
E57 [6], 37 nM | – | 0.935
E57 [6], 111.1 nM | – | 0.931
E57 [6], 333.3 nM | – | 1.01
E57 [6], 1000 nM | – | 0.658
E57 [6], 3000 nM | – | 0.189
E57 [13], 4.1 nM | 0.685 | –
E57 [13], 12.3 nM | 0.929 | –
E57 [13], 37 nM | 0.554 | –
E57 [13], 111.1 nM | 0.781 | –
E57 [13], 333.3 nM | 1.52 | –
E57 [13], 1000 nM | 3.59 | –
E57 [13], 3000 nM | 7.66 | –
FT3469 [7], 4.1 nM | – | 1.03
FT3469 [7], 12.3 nM | – | 0.94
FT3469 [7], 37 nM | – | 0.96
FT3469 [7], 111.1 nM | – | 0.904
FT3469 [7], 333.3 nM | – | 0.739
FT3469 [7], 1000 nM | – | 0.748
FT3469 [7], 3000 nM | – | 0.648
FT3469 [14], 4.1 nM | 0.701 | –
FT3469 [14], 12.3 nM | 1.1 | –
FT3469 [14], 37 nM | 1.06 | –
FT3469 [14], 111.1 nM | 1.22 | –
FT3469 [14], 333.3 nM | 1.84 | –
FT3469 [14], 1000 nM | 2.27 | –
FT3469 [14], 3000 nM | 2.46 | –

Cc1ccc(/C=N/NC(=O)c2n[nH]c3c2CCCC3)cc1 [Suprafenacine]
Conditions | phenotypic distance | surviving fraction
E13 [1], 4.1 nM | – | 0.909
E13 [1], 12.3 nM | – | 0.853
E13 [1], 37 nM | – | 0.86
E13 [1], 111.1 nM | – | 0.536
E13 [1], 333.3 nM | – | 0.144
E13 [1], 1000 nM | – | 0.235
E13 [1], 3000 nM | – | 0.1
E13 [8], 4.1 nM | 0.782 | –
E13 [8], 12.3 nM | 0.752 | –
E13 [8], 37 nM | 1.13 | –
E13 [8], 111.1 nM | 3.22 | –
E13 [8], 333.3 nM | 7.1 | –
E13 [8], 1000 nM | 7.86 | –
E13 [8], 3000 nM | 5.88 | –
E21 [2], 4.1 nM | – | 0.963
E21 [2], 12.3 nM | – | 0.931
E21 [2], 37 nM | – | 0.982
E21 [2], 111.1 nM | – | 0.453
E21 [2], 333.3 nM | – | 0.0832
E21 [2], 1000 nM | – | 0.113
E21 [2], 3000 nM | – | 0.0664
E21 [9], 4.1 nM | 0.928 | –
E21 [9], 12.3 nM | 0.73 | –
E21 [9], 37 nM | 1.18 | –
E21 [9], 111.1 nM | 4.45 | –
E21 [9], 333.3 nM | 9.28 | –
E21 [9], 1000 nM | 6.44 | –
E21 [9], 3000 nM | 9.19 | –
E28 [3], 4.1 nM | – | 0.954
E28 [3], 12.3 nM | – | 0.896
E28 [3], 37 nM | – | 0.922
E28 [3], 111.1 nM | – | 0.742
E28 [3], 333.3 nM | – | 0.325
E28 [3], 1000 nM | – | 0.31
E28 [3], 3000 nM | – | 0.217
E28 [10], 4.1 nM | 0.615 | –
E28 [10], 12.3 nM | 0.72 | –
E28 [10], 37 nM | 0.724 | –
E28 [10], 111.1 nM | 1.34 | –
E28 [10], 333.3 nM | 3.15 | –
E28 [10], 1000 nM | 4.1 | –
E28 [10], 3000 nM | 5.78 | –
E31 [4], 4.1 nM | – | 0.95
E31 [4], 12.3 nM | – | 0.845
E31 [4], 37 nM | – | 0.709
E31 [4], 111.1 nM | – | 0.454
E31 [4], 333.3 nM | – | 0.0666
E31 [4], 1000 nM | – | 0.0444
E31 [4], 3000 nM | – | 0.0399
E31 [11], 4.1 nM | 0.29 | –
E31 [11], 12.3 nM | 1.07 | –
E31 [11], 37 nM | 1.19 | –
E31 [11], 111.1 nM | 2.14 | –
E31 [11], 333.3 nM | 6.25 | –
E31 [11], 1000 nM | 9.97 | –
E31 [11], 3000 nM | 12.3 | –
E34 [5], 4.1 nM | – | 1.01
E34 [5], 12.3 nM | – | 0.905
E34 [5], 37 nM | – | 0.938
E34 [5], 111.1 nM | – | 0.69
E34 [5], 333.3 nM | – | 0.409
E34 [5], 1000 nM | – | 0.375
E34 [5], 3000 nM | – | 0.237
E34 [12], 4.1 nM | 0.442 | –
E34 [12], 12.3 nM | 1.02 | –
E34 [12], 37 nM | 0.706 | –
E34 [12], 111.1 nM | 1.69 | –
E34 [12], 333.3 nM | 5.34 | –
E34 [12], 1000 nM | 6.45 | –
E34 [12], 3000 nM | 8.8 | –
E57 [6], 4.1 nM | – | 0.914
E57 [6], 12.3 nM | – | 0.922
E57 [6], 37 nM | – | 0.883
E57 [6], 111.1 nM | – | 0.685
E57 [6], 333.3 nM | – | 0.0911
E57 [6], 1000 nM | – | 0.0842
E57 [6], 3000 nM | – | 0.0511
E57 [13], 4.1 nM | 1.71 | –
E57 [13], 12.3 nM | 0.929 | –
E57 [13], 37 nM | 0.819 | –
E57 [13], 111.1 nM | 3.04 | –
E57 [13], 333.3 nM | 5.2 | –
E57 [13], 1000 nM | 5.41 | –
E57 [13], 3000 nM | 6.18 | –
FT3469 [7], 4.1 nM | – | 0.873
FT3469 [7], 12.3 nM | – | 0.804
FT3469 [7], 37 nM | – | 0.848
FT3469 [7], 111.1 nM | – | 0.492
FT3469 [7], 333.3 nM | – | 0.527
FT3469 [7], 1000 nM | – | 0.471
FT3469 [7], 3000 nM | – | 0.295
FT3469 [14], 4.1 nM | 1.07 | –
FT3469 [14], 12.3 nM | 1.84 | –
FT3469 [14], 37 nM | 1.31 | –
FT3469 [14], 111.1 nM | 2.86 | –
FT3469 [14], 333.3 nM | 3.59 | –
FT3469 [14], 1000 nM | 3.7 | –
FT3469 [14], 3000 nM | 6.28 | –
